The record followed here is ChEMBL document CHEMBL5042519, “Design and synthesis of marine sesterterpene analogues as novel estrogen receptor α degraders for breast cancer treatment” (Eur J Med Chem, 2022).

Data set [1] relates to MCF7. The data set is described as follows: Induction of ROS generation in human MCF7 cells assessed as increase in intracellular ROS level at 2 uM measured after 24 hrs by DCFH-DA staining based flow cytometry method (reference value: 19.02%). It counts as functional.
The test system of data set [2] is MCF7. The experiment in a line: Induction of ROS generation in human MCF7 cells assessed as increase in intracellular ROS level at 0.5 to 2 uM and measured after 24 hrs by DCFH-DA staining based flow cytometry method. It counts as functional, cell-based. The following applies: dose 0.5-2 µM. A general note: In flow cytometry, cells or beads pass a laser one at a time.

Data set [3] has as its system MCF7. The experiment in a line: Induction of apoptosis in human MCF7 cells assessed as increase in cytochrome C protein level at 0.5 to 3 uM and measured after 24 hrs Western blot analysis relative to control. The data set is classed as functional, cell-based. The following applies: dose 0.5-3 µM. In general terms: Immunoblotting shows a protein as a band on a membrane.

The subject of data set [4] is MCF7. The data set is described as follows: Cell cycle arrest in human MCF7 cells assessed as accumulation at G1 phase at 2 uM measured after 24 hrs by propidium iodide staining based flow cytometry (reference value: 73.45 %). It counts as functional.
In data set [5] the test system is MCF7. The data set is described as follows: Inhibition of colony formation in human MCF7 cells at 0.5 to 2 uM measured after 9 days by crystal violet staining based assay. It counts as functional, cell-based. The following applies: dose 0.5-2 µM, time 9.0 day.
The test system of data set [6] is MCF7. The data set is described as follows: Inhibition of colony formation in human MCF7 cells at 0.5 uM measured after 9 days by crystal violet staining based assay relative to control. It counts as functional, cell-based. The conditions noted are these: time 9.0 day.
The test system of data set [7] is MCF7. The data set is described as follows: Induction of mitochondrial membrane potential loss in human MCF7 cells at 2 uM measured after 24 hrs by JC-1 staining based flow cytometry. It counts as functional, cell-based.
Data set [8] concerns the target T1, Estrogen receptor (Homo sapiens) (UniProt P03372).
T1 sequence (whole entry): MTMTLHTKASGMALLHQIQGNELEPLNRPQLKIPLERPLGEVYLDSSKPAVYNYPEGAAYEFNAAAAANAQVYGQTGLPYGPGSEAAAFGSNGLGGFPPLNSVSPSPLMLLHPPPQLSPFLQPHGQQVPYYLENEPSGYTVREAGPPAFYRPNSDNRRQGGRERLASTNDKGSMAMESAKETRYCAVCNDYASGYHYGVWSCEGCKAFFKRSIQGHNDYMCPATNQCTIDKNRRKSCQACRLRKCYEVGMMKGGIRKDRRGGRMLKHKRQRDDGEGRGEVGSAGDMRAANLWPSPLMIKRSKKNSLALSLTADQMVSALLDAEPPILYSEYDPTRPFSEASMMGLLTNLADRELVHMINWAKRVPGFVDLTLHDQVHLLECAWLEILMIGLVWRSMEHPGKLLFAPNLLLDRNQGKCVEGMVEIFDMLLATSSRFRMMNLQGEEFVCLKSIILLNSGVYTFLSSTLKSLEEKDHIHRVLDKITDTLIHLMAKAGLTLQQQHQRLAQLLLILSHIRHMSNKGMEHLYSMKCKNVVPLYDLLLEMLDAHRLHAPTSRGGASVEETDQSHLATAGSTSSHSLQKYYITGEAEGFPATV
The experiment in a line: Induction of ERalpha degradation in human MCF7 cells assessed as ERalpha level at 3 uM measured after 24 hrs in presence of chloroquine by Western blot analysis. It counts as cell-based.

Data set [9] in a line: Resistance index, ratio of IC50 for antiproliferative activity against human MCF7/ADR cells to IC50 for antiproliferative activity against human MCF7 cells. It counts as functional.
The test system of data set [10] is MCF7. The experiment in a line: Induction of apoptosis in human MCF7 cells assessed as decrease in Bcl2 protein level at 0.5 to 3 uM and measured after 24 hrs Western blot analysis relative to control. The conditions noted are these: dose 0.5-3 µM. It counts as functional, cell-based.
Data set [11] relates to MCF7. The data set is described as follows: Cell cycle arrest in human MCF7 cells assessed as decrease in G2/M phase accumulation at 0.5 to 2 uM and measured after 24 hrs by propidium iodide staining based flow cytometry relative to control. The conditions noted are these: dose 0.5-2 µM. It counts as functional.
The target of data set [12] is T1, Estrogen receptor (Homo sapiens). The data set is described as follows: Induction of ERalpha degradation in human MCF7 cells assessed as ERalpha level at 3 uM measured after 24 hrs in presence of HyT by Western blot analysis. The data set is classed as cell-based.
The target is the same in data set [13]. The data set is described as follows: Induction of ERalpha degradation in human MCF7 cells assessed as decrease in ERalpha protein expression at 0.5 to 3 uM for 24 hrs by Western blot analysis. The conditions noted are these: dose 0.5-3 µM. It counts as cell-based.
The nature of data set [14]: Metabolic stability in rat liver microsomes assessed as assessed as intrinsic clearance incubated for 60 mins in presence of NADPH by UPLC-MS analysis. It counts as ADME, Microsome. The following applies: read-out: CLH. For orientation: Liver microsomes are vesicles of endoplasmic reticulum, rich in cytochrome P450 enzymes.
In data set [15] the test system is MCF7. The experiment in a line: Induction of ROS generation in human MCF7 cells assessed as increase in intracellular ROS level measured after 24 hrs preincubated with NAC by DCFH-DA staining based flow cytometry method. It counts as functional, cell-based.
The test system of data set [16] is MCF7. The data set is described as follows: Effect on cell morphology in human MCF7 cells assessed as chromatin shrinkage at 0.5 to 2 uM measured after 24 hrs by Hoechst 33342 staining based fluorescence microscopy. It counts as functional. The conditions noted are these: dose 0.5-2 µM.
The test system of data set [17] is MCF7. The data set is described as follows: Induction of apoptosis in human MCF7 cells assessed as increase in cleaved caspase 9 level at 0.5 to 3 uM and measured after 24 hrs Western blot analysis relative to control. It counts as functional, cell-based. The following applies: dose 0.5-3 µM.
The subject of data set [18] is MCF7. The experiment in a line: Effect on cell morphology in human MCF7 cells assessed as appearance of apoptotic bodies at 0.5 to 2 uM measured after 24 hrs by Hoechst 33342 staining based fluorescence microscopy. It counts as functional. The conditions noted are these: dose 0.5-2 µM.
A short description of data set [19]: Antiproliferative activity against human MCF-10A cells assessed as reduction in cell viability after 48 hrs by MTT assay. It counts as toxicity, cell-based.
Data set [20] deals with MCF7. The experiment in a line: Induction of apoptosis in human MCF7 cells assessed as early apoptotic cells at 1 uM incubated for 24 hrs by annexin-V and PI staining based flow cytometry analysis relative to control. The data set is classed as functional.

The structures appear in SMILES notation. The source made the active and inactive calls. The calls are words filed in the database; no cut-off is given here.

With `CC1=CC(=O)[C@H]2/C(C=O)=C\C[C@H]3[C@@H]([C@@H](C)/C=C\C=C/C(=O)OCCOCCOCCOC(=O)CC45CC6CC(CC(C6)C4)C5)CC[C@]3(C)C[C@H]12`, the Activity in data set [1] was 58.14%; in data set [2], “Dose-Dependent Effect”; in data set [4] it was 87.85%; in data set [13], “Dose-Dependent Effect”; in data set [17] it was “Dose-Dependent Effect”; in data set [20], 14.1%. In addition, the result in [3], in [7], in [8], in [10], in [11] and in data set [12] was Active. Moreover, the result in data set [16] and in data set [18] was Active. Besides, the inhibition result in data set [5] and in [6] was “Active” throughout. Also, the “Ratio IC50” value in data set [9] worked out at 1.17. Further, in data set [14], the microsomal CLint came to 17.8 µL/min/mg. For the same compound, the outcome in [15] was inactive. Further, the IC50 (usually the concentration that gives 50% inhibition) at 48 h in data set [19] stood at 2190 nM.
